The source made the active and inactive calls. The rule behind the calls is not given here.
Experiments:
A-375 [1] = experiment: Cytotoxicity against vemurafenib-sensitive human A375 cells assessed as cell viability at 10 uM after 48 hrs by trypan blue exclusion assay relative to control; type: functional; details: A-375, 48 h, read-out: Activity
A-375 [2] = experiment: Cytotoxicity against vemurafenib-sensitive human A375 cells assessed as cell viability at 5 uM after 48 hrs by trypan blue exclusion assay relative to control; type: functional; details: A-375, 48 h, read-out: Activity
[3] = Cytotoxicity against vemurafenib-resistant human A375 R5C3 cells assessed as cell viability at 10 uM after 48 hrs by trypan blue exclusion assay relative to control; type: functional; details: A-375, 48 h, read-out: Activity
[4] = Cytotoxicity against vemurafenib-resistant human A375 R5C3 cells assessed as cell viability at 1 uM after 48 hrs by trypan blue exclusion assay relative to control; type: functional; details: A-375, 48 h, read-out: Activity
[5] = Cytotoxicity against vemurafenib-resistant human A375 RIV cells assessed as cell viability at 10 uM after 48 hrs by trypan blue exclusion assay relative to control; type: functional; details: A-375, 48 h, read-out: Activity
[6] = Cytotoxicity against vemurafenib-resistant human A375 RIV cells assessed as cell viability at 1 uM after 48 hrs by trypan blue exclusion assay relative to control; type: functional; details: A-375, 48 h, read-out: Activity
[7] = Cytotoxicity against vemurafenib-resistant human A375 RIV cells assessed as cell viability at 5 uM after 48 hrs by trypan blue exclusion assay relative to control; type: functional; details: A-375, 48 h, read-out: Activity
K562 [8] = experiment: Cytotoxicity against imatinib-sensitive human K562 cells assessed as cell viability at 10 uM after 48 hrs by trypan blue exclusion assay relative to control; type: functional; details: K562, 48 h, read-out: Activity
K562 [9] = experiment: Cytotoxicity against imatinib-resistant human K562 cells assessed as cell viability at 10 uM after 48 hrs by trypan blue exclusion assay relative to control; type: functional; details: K562, 48 h, read-out: Activity
BXPC-3 [10] = experiment: Cytotoxicity against gemcitabine-sensitive human BxPC3 cells assessed as cell viability at 10 uM after 48 hrs by trypan blue exclusion assay relative to control; type: functional; details: BXPC-3, 48 h, read-out: Activity
MIA PaCa-2 [11] = experiment: Cytotoxicity against gemcitabine-resistant human MIAPaCa2 cells assessed as cell viability at 10 uM after 48 hrs by trypan blue exclusion assay relative to control; type: functional; details: MIA PaCa-2, 48 h, read-out: Activity
A-375 [12] = experiment: Cytotoxicity against vemurafenib-sensitive human A375 cells assessed as reduction in cell viability after 48 hrs by trypan blue exclusion assay; type: functional, cell-based; details: A-375, 48 h
[13] = Cytotoxicity against vemurafenib-resistant human A375 RIV cells assessed as reduction in cell viability after 48 hrs by trypan blue exclusion assay; type: functional, cell-based; details: A-375, 48 h
[14] = Cytotoxicity against vemurafenib-resistant human A375 R5C3 cells assessed as reduction in cell viability after 48 hrs by trypan blue exclusion assay; type: functional, cell-based; details: A-375, 48 h
K562 [15] = experiment: Cytotoxicity against imatinib-sensitive human K562 cells assessed as reduction in cell viability after 48 hrs by trypan blue exclusion assay; type: functional, cell-based; details: K562, 48 h
K562 [16] = experiment: Cytotoxicity against imatinib-resistant human K562 cells assessed as reduction in cell viability after 48 hrs by trypan blue exclusion assay; type: functional, cell-based; details: K562, 48 h
BXPC-3 [17] = experiment: Cytotoxicity against gemcitabine-sensitive human BxPC3 cells assessed as reduction in cell viability after 48 hrs by trypan blue exclusion assay; type: functional, cell-based; details: BXPC-3, 48 h
MIA PaCa-2 [18] = experiment: Cytotoxicity against gemcitabine-resistant human MIAPaCa2 cells assessed as reduction in cell viability after 48 hrs by trypan blue exclusion assay; type: functional, cell-based; details: MIA PaCa-2, 48 h
[19] = Cytotoxicity against human keratinocytes assessed as cell viability at 5 uM after 48 hrs by trypan blue exclusion assay relative to control; type: cell-based, Keratinocyte; details: read-out: Activity
[20] = Cytotoxicity against human fibroblasts assessed as cell viability at 5 uM after 48 hrs by trypan blue exclusion assay relative to control; type: cell-based, Fibroblast; details: read-out: Activity
[21] = Cytotoxicity against human keratinocytes assessed as cell viability at 10 uM after 48 hrs by trypan blue exclusion assay relative to control; type: cell-based, Keratinocyte; details: read-out: Activity
[22] = Cytotoxicity against human fibroblasts assessed as cell viability at 10 uM after 48 hrs by trypan blue exclusion assay relative to control; type: cell-based, Fibroblast; details: read-out: Activity
A-375 [23] = experiment: Inhibition of colony formation in human A375 cells at 5 uM after 10 days by crystal violet staining based assay relative to control; type: functional; details: A-375, 240 h
A-375 [24] = experiment: Inhibition of colony formation in human A375 cells at 10 uM after 10 days by crystal violet staining based assay relative to control; type: functional; details: A-375, 240 h
A-375 [25] = experiment: Inhibition of colony formation in human A375 cells after 10 days by crystal violet staining based assay; type: functional, cell-based
A-375 [26] = experiment: Induction of apoptosis in human A375 cells assessed as cells with active caspase-3 at 10 uM after 48 hrs by flow cytometry (reference value: 4.16%); type: functional
A-375 [27] = experiment: Induction of apoptosis in human A375 cells assessed as increase in cleaved PARP expression at 10 uM after 24 hrs by Western blot analysis; type: functional, cell-based
A-375 [28] = experiment: Induction of autophagy in human A375 cells assessed as increase in LC3-1 to LC3-2 conversion at 10 uM after 24 hrs by Western blot analysis; type: functional, cell-based
A-375 [29] = experiment: Induction of autophagy in human A375 cells assessed as increase in LC3-2 expression at 10 uM after 12 hrs by Hoechst staining based immunofluorescence method; type: functional, cell-based
A-375 [30] = experiment: Induction of apoptosis in human A375 cells assessed as increase in cleaved PARP expression at 10 uM after 48 hrs in presence of pan-caspase inhibitor QVD by Western blot analysis; type: functional, cell-based
A-375 [31] = experiment: Induction of autophagy in human A375 cells assessed as increase in LC3B-2 expression at 10 uM after 48 hrs in presence of LC3 siRNA by Western blot analysis; type: functional, cell-based
A-375 [32] = experiment: Cytotoxicity against human A375 cells assessed as reduction in cell viability at 10 uM after 48 hrs in presence of pan-caspase inhibitor QVD/LC3 siRNA by trypan blue exclusion assay; type: functional, cell-based
[33] = Half life in mouse liver microsomes at 37 degC; type: ADME, Microsome
[34] = Terminal half life in mouse at 1 mg/kg, iv; type: ADME, organism-based; details: in vivo, read-out: beta t1/2
[35] = Total clearance in mouse at 1 mg/kg, iv measured 2 hrs post dose; type: ADME, organism-based; details: in vivo
[36] = Volume of distribution in mouse at 1 mg/kg, iv measured 2 hrs post dose; type: ADME, organism-based; details: in vivo
[37] = AUC (0 to 2 hrs) in mouse at 1 mg/kg, iv; type: ADME, organism-based; parameters: dose 1 mg/kg, time < 2 hr, route intravenous; details: in vivo
[38] = Toxicity in mouse assessed as behavioral modification at 1 mg/kg, iv; type: organism-based; details: in vivo
A-375 [39] = experiment: Antitumor activity against human A375 cells xenografted in immuno-deficient nude Balb/c mouse assessed as tumor growth inhibition at 0.7 mg/kg/day, ip measured on day 31 post treatment; type: functional, organism-based
[40] = Toxicity in nude Balb/c mouse xenografted with human A375 cells assessed as behavioral modification at 0.7 mg/kg/day, ip; type: organism-based; details: in vivo
[41] = Toxicity in nude Balb/c mouse xenografted with human A375 cells assessed as effect on body mass at 0.7 mg/kg/day, ip; type: organism-based; details: in vivo
[42] = Toxicity in nude Balb/c mouse xenografted with human A375 cells assessed as diet disturbance at 0.7 mg/kg/day, ip; type: organism-based; details: in vivo
A-375 [43] = experiment: Induction of apoptosis in human A375 cells xenografted in immuno-deficient nude Balb/c mouse assessed as increase in cleaved PARP expression in tumor at 0.7 mg/kg/day, ip measured on day 31 post treatment by Western blot analysis; type: functional, organism-based
A-375 [44] = experiment: Induction of autophagy in human A375 cells xenografted in immuno-deficient nude Balb/c mouse assessed as increase in LC3-2 expression in tumor at 0.7 mg/kg/day, ip measured on day 31 post treatment by Western blot analysis; type: functional, organism-based
A-375 [45] = experiment: Inhibition of colony formation in human A375 cells assessed as induction of less dense colony level at 5 and 10 uM after 10 days by crystal violet staining based assay relative to control; type: functional, cell-based

With CCCCCCC#Cc1ccc(S(=O)(=O)Nc2cccc(-c3csc(NC(C)=O)n3)c2)cc1 the viability at 10 µM (A-375 [1]) was under 1%, the viability at 5 µM (A-375 [2]) was under 1% and the viability at 10 µM [3] was under 1%. It also gave a viability at 1 µM [4] of 83%, a viability at 10 µM [5] of under 1% and a viability at 1 µM [6] of 12%. For the same compound, the viability at 5 µM [7] was 0.3%, the viability at 10 µM (K562 [8]) was 0.6% and the viability at 10 µM (K562 [9]) was 3.4%. The viability at 10 µM (BXPC-3 [10]) was under 1%, the viability at 10 µM (MIA PaCa-2 [11]) was under 1% and the EC50 (A-375 [12]) was 0.56 µM. For the same compound, the EC50 [13] was 0.48 µM, the EC50 [14] was 1.32 µM and the EC50 (K562 [15]) was 1.42 µM. The EC50 (K562 [16]) was 1.62 µM, the EC50 (BXPC-3 [17]) was 0.38 µM and the EC50 (MIA PaCa-2 [18]) was 0.64 µM. It also gave a viability at 48 h, 5 µM [19] of 91.2%, a viability at 48 h, 5 µM [20] of 91.5% and a viability at 48 h, 10 µM [21] of 93.4%. For the same compound, the viability at 48 h, 10 µM [22] was 85.1%, the inhibition at 5 µM (A-375 [23]) was 77% and the inhibition at 10 µM (A-375 [24]) was 94%. For the same compound, the inhibition (A-375 [25]) was “Dose-dependent effect”, the Activity (A-375 [26]) was 48 - 48.4% and the Activity (A-375 [27]) was “Active”. For the same compound, the Activity (A-375 [28]) was “Active”, the Activity (A-375 [29]) was “Active” and the Activity (A-375 [30]) was “inactive”. The Activity (A-375 [31]) was “inactive”, the Activity (A-375 [32]) was “inactive” and the half-life [33] was over 45 min. For the same compound, the half-life [34] was 47 min, the clearance [35] was 43 mL/min/kg and the Vd [36] was 2.91 L/kg. For the same compound, the AUC(0-t) at 2 h [37] was 389 ng·h/mL, the Activity [38] was “Non-Toxic” and the TGI (A-375 [39]) was “Active”. The Activity [40] was “Non-Toxic”, the Activity [41] was “Non-Toxic” and the Activity [42] was “Non-Toxic”. For the same compound, the Activity (A-375 [43]) was “Active”, the Activity (A-375 [44]) was “Active” and the inhibition (A-375 [45]) was “Active”.

From ChEMBL document CHEMBL4428084, “Discovery and Optimization of N-(4-(3-Aminophenyl)thiazol-2-yl)acetamide as a Novel Scaffold Active against Sensitive and Resistant Cancer Cells” (J Med Chem, 2016)
